# Test results: PubChem BioAssay AID624258 (Broad Institute, 2012)
# Values joined by “and” are separate entries in the source; they are usually repeats but may differ in a detail not shown here. Equal values may be shown once. Active and inactive are the calls of the source. How the calls were made is not given here.
# Assay: SKN7 mediated toxicity in Saccharomyces cerevisiae, growth rescue counterscreen, dose confirmation (AID 624258);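 further: growth read after three days of incubation at 30 °C; 0% = median of neutral control wells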
# Conditions: S. cerevisiae SKN7-toxicity growth rescue, plate reader; at 6.8 µM (top of the series)
row,SMILES,growth rescue activity
1,CCc1c(C2(O)CCCCC2)[nH]c2ccc(C(F)(F)F)cc12,85.9% (inactive)
2,Cc1ccc(C(=O)C(SC(C)(C)C)n2cncn2)cc1 (stereo unspecified),27.6% (inactive)
3,Cc1ccc2c(c1C)-c1c(ccc(C)c1C)C(=O)C2=O,-4.89% (inactive)

# Same assay, conditions: S. cerevisiae SKN7-toxicity growth rescue, plate reader; at 19.5 µM (top of the series)
row,SMILES,growth rescue activity
1,CCC(C)c1ccc(NC(=S)NCCn2cc(Br)cn2)cc1 (stereo unspecified),-33.1% (inactive)
2,CCOC(=O)c1c2c(n(-c3ccc(OC)cc3)c1C)C(=O)C(=O)c1ccccc1-2,-68% (inactive)
3,C[C@]12CC[C@H](O)CC1=CCC1C2CC[C@@]2(C)C1CC[C@@H]2NC(=O)[C@@H](N)Cc1ccccc1 (stereo partly specified),15.7% (inactive)
4,c1ccc(Nc2nc(-c3ccccn3)cs2)cc1,-0.973% (inactive)
5,Nc1nc(-c2ccccc2)c(-c2ccc([N+](=O)[O-])cc2)s1,-79.9% (inactive)
6,Oc1c(I)cc(Cl)c2cccnc12,-81.1% (inactive)
7,CCOC(=O)c1ccc(NC(=S)N(Cc2cccnc2)Cc2ccco2)cc1,-37.1% (inactive)
8,O=C(C1CCN(C2CC(=O)N(c3cccc(Cl)c3)C2=O)CC1)N1CCCC1 (stereo unspecified),84.3% (inactive)
9,CC(C)(CN1CCc2ccccc2C1)NS(=O)(=O)c1ccc(Cl)cc1,-9.34% (inactive)
10,COc1cc2c(c(OC)c1OC)-c1ccc(O)c(=O)cc1[C@@H](NC(C)=O)CC2,-29.6% (inactive)
11,O=C(COC(=O)c1ccc([N+](=O)[O-])o1)NC12CC3CC(CC(C3)C1)C2,-18.4% (inactive)
12,COc1ccccc1N1CCN(C(=O)CCNS(=O)(=O)c2ccc(Br)s2)CC1,9.41% (inactive)
13,COc1ccc(/C=N/Nc2cc(C)nc(-n3nc(C)cc3C)n2)cc1,-51.9% (inactive)
14,Cc1cc(C(F)(F)F)n2[nH]c(=O)c(N=Nc3ccccc3)c2n1,-58.6% (inactive)
15,O=C1c2cc(F)ccc2-n2c1nc1ccccc1c2=O,-16.1% (inactive)
16,CCN(CC)S(=O)(=O)c1ccc(N=NC2=C(O)CC(C)(C)CC2=O)cc1,-10.4% (inactive)
17,S=C1NC[C@H](c2ccccc2)N1CCCCC1CCCCC1,85.2% (inactive)
18,c1ccc(C(=NNc2nc3ccccc3s2)c2ccccn2)cc1,-69.9% (inactive)
19,CC(CNC(=O)COc1ccccc1)OC(=O)Nc1ccc(Cl)c(Cl)c1 (stereo unspecified),-93.2% (inactive)
20,CN1CCN(C(c2ccccn2)c2cc(Cl)c3cccnc3c2O)CC1 (stereo unspecified),-64.1% (inactive)
21,Oc1c(Br)cc(-c2ccccc2)cc1Br,-84.6% (inactive)
22,O=S1OC(c2ccccc2)c2cc(Cl)ccc21 (stereo unspecified),-14.3% (inactive)
23,CCCCCC1CCC(c2n[nH]c(=S)n2C)CC1 (stereo unspecified),-58.3% (inactive)
24,COc1cnc(-c2ccccn2)nc1Sc1ccc(C)cc1,-65.7% (inactive)

row,SMILES,growth rescue activity
1,O=C(Nc1nnc(-c2ccccc2)o1)c1ccc(Cl)cc1,-46.1% (inactive)
2,Cc1ccc(S(=O)(=O)Nc2ccc(O)c3cccnc23)cc1,-0.63% (inactive)
3,COc1ccc(N/N=C(\C#N)C(N)=O)cc1,-58.5% (inactive)
4,CCN(CC)C(=O)C1CCCc2c1[nH]c1ccc(Cl)cc21 (stereo unspecified),-45% (inactive)
5,COc1cccc(C(=O)Nc2sc(C(C)C)cc2C(N)=O)c1OC,93.8% (inactive)
6,Cc1nc(SCc2ccc(OCCC(C)C)cc2)n[nH]1,-93.3% (inactive)
7,O=C1C=C(N(CCO)Cc2ccccc2)c2ccccc2C1=O,12.2% (inactive)
8,CC1=NN(C(N)=S)C(=O)C1N=Nc1cccc(Cl)c1C (stereo unspecified),-42.1% (inactive)
9,O=S(=O)(c1c(Cl)sc(Cl)c1Br)N1CCCC1,-25% (inactive)
10,O=c1c2ccccc2c(-c2ccc(O)cc2)nn1-c1cccc(C(F)(F)F)c1,-88.1% (inactive)
11,O=C1c2ccccc2-n2c1nc1ccccc1c2=O,-48.7% (inactive)
12,O=[N+]([O-])c1ccc2c(c1)Cc1cc(O)ccc1-2,4.71% (inactive)
13,O=C(/C(=N/N=C/c1ccc(O)c(O)c1O)c1ccccc1)c1ccccc1,-75.4% (inactive)
14,CCOC(=O)N1C(=O)C2(CCCCC2)N(c2ccccc2Cl)C1=S,-49.5% (inactive)
15,Cc1cccc(N2CCN(C(=O)C3(S(=O)(=O)c4ccc(Cl)cc4)CC3)CC2)c1C,-38.2% (inactive)
16,COc1cccc(/C=N/Nc2ncnc3scc(-c4ccccc4)c23)c1O,-79.1% (inactive)
17,NC(=O)N=Nc1c2[nH]c3ccccc3nc-2c2ccccc12,6.67% (inactive)
18,O=[N+]([O-])c1ccc(Sc2cccc[n+]2[O-])c2nonc12,-4.98% (inactive)
19,O=C1Nc2c(Br)cccc2C1=O,-9.27% (inactive)
20,c1ccc(-c2ccc(SCc3cccnc3)nn2)nc1,-9.85% (inactive)
21,O=c1c(O)c(-c2ccccc2)oc2ccccc12,-14.5% (inactive)
22,COc1ccc(OCC(=O)NNC(=S)NC(=O)C2CCCCC2)cc1,-64.8% (inactive)
23,Oc1ccc(/C=N/Nc2ccc(C(F)(F)F)cn2)c(O)c1,-73.7% (inactive)
24,FC(F)(F)c1cccc(N2CCN(C(=S)NC3CCCCC3)CC2)c1,64.1% (inactive)

row,SMILES,growth rescue activity
1,Oc1c(Cl)cc(Cl)cc1/C=N/NC(=S)NC1CC2C=CC1C2 (stereo unspecified),-42.5% (inactive)
2,CC(=O)/C=C(\C)Nc1ccccc1O,-6.16% (inactive)
3,CCOC(=O)c1nnn(-c2ccc([N+](=O)[O-])cc2[N+](=O)[O-])c1C,17.3% (inactive)
4,O=C(c1ccc(-c2ccccc2)c(F)c1)C1CCCN(C(=O)c2cncs2)C1 (stereo unspecified),-45.2% (inactive)
5,CCc1ccc(OCc2n[nH]c(=S)n2Cc2ccccc2)cc1,-30.5% (inactive)
6,CCC(Oc1ccc(Br)cc1Cl)C(=O)Nc1nnc(C2CC2)s1 (stereo unspecified),-50.3% (inactive)
7,Clc1ccc(COC(Cn2ccnc2)c2ccc(Cl)cc2Cl)c(Cl)c1 (stereo unspecified),-74.2% (inactive) and -75.5% (inactive)
8,O/N=C(\c1ccc(Cl)cc1)c1cc2ccccc2o1,3.39% (inactive)
9,N#Cc1c(-c2ccco2)c2c([nH]c1=S)CCCC2,-16.7% (inactive)
10,CCn1c(-c2cc(-c3ccc(C)cc3)nc3ccccc23)n[nH]c1=S,-24.4% (inactive)
11,Clc1ccccc1CN(Cc1ccco1)Cc1nnnn1C1CCCC1,-4.89% (inactive)
12,C=CCc1ccc(O)c(-c2ccc(O)c(CC=C)c2)c1,-65.1% (inactive)
13,CCCCCOc1ccc(CSc2n[nH]c(C)n2)cc1,-91.3% (inactive)
14,Cc1ccccc1Oc1nc(-c2ccccn2)nc2ccccc12,-58.6% (inactive)
15,C[n+]1c2cc(N)ccc2cc2ccc(N)cc21,-24.4% (inactive) and -10% (inactive)
16,COc1ccc2oc(=O)c(-c3csc(Nc4cccc(O)c4)n3)cc2c1,12.4% (inactive)
17,CCCCCCSc1ccc(-c2nc3ccccn3c2NCCCC)cc1,-84.3% (inactive)
18,CC(=O)C1=C(c2cccc([N+](=O)[O-])c2)N(C(C)=O)n2c(C)nnc2S1,-84.3% (inactive)
19,Cc1cc(C)c2sc(NNC(=O)c3ccc(S(=O)(=O)N4CCc5ccccc5C4)cc3)nc2c1,-31.4% (inactive)
20,CCN1/C(=C/c2sc(-c3ccccc3C)c[n+]2C)Sc2ccccc21,-60.6% (inactive)
21,Cn1c(CNc2ccccc2O)nc2ccccc21,-50% (inactive)
22,O=C1C=C(NCCc2cc(Br)c(O)c(Br)c2)C(=O)c2ncccc21,30.5% (inactive)
23,Cc1cc(NC2=CC(=O)C(=O)c3ccccc32)no1,-9.16% (inactive)
24,O=C(Nc1nnc(-c2cccs2)o1)c1cccc(Oc2ccccc2)c1,-6.4% (inactive)

row,SMILES,growth rescue activity
1,S=C(Nc1ccc(Oc2ccccc2)cc1)NC1CCCCCC1,-9.53% (inactive)
2,FC(F)(F)Oc1ccc(NC(=S)Nc2ccc(OC(F)(F)F)cc2)cc1,26% (inactive)
3,COc1cc(/C=N/O)cc(Br)c1OCc1cccc(Cl)c1,-82% (inactive)
4,C=C(C)COc1ccc(-c2[nH]ncc2-c2ccccc2)c(O)c1,-93.2% (inactive)
5,Cc1nc2ccc(C(C(F)(F)F)(C(F)(F)F)C(F)(F)F)cc2[nH]1,-85.7% (inactive)
6,CCCCCCC(Cl)(Cn1ccnc1)c1ccccc1 (stereo unspecified),-69.6% (inactive)
7,COc1ccc(S(=O)(=O)Nc2cc(SCC(=O)O)c(O)c3ccccc23)cc1,4.66% (inactive)
8,O=C(CC1(O)C(=O)Nc2cc(Cl)cc(Cl)c21)c1ccncc1 (stereo unspecified),-23.3% (inactive)
9,O=C(CN1CCN(c2ncc(C(F)(F)F)cc2Cl)CC1)NCCNc1ncc(C(F)(F)F)cc1Cl,-35.8% (inactive)
10,O=C(Sc1cccc2cccnc12)c1ccccc1Br,-59.6% (inactive)
11,CCOc1ccc(-c2[nH]ncc2Oc2cccc(OC)c2)c(O)c1,-63.7% (inactive)
12,CCOC(=O)C1=C(C)NC(=O)C1CC(=O)O (stereo unspecified),-16.2% (inactive)
13,Cn1nnnc1N=N/C(=N/Nc1ccccc1)c1ccccc1,-47% (inactive)
14,O=[N+]([O-])c1ccc(S(=O)(=O)c2ccccc2)nc1,10.3% (inactive)
15,CCCCNC(=S)N/N=C1\CCCCc2ccccc21,-53.8% (inactive)
16,Cc1nc2ccc(NC(=O)Cc3ccc4c(c3)OCCO4)cc2s1,28.8% (inactive)
17,Cc1cccc(Oc2cnn(C(C)(C)C)c(=O)c2Cl)c1,1.29% (inactive)
18,COc1ccc2c(c1)OC[C@H]1[C@H]2N2C(=O)c3cc(C)ccc3NC(=O)[C@@]2(C)[C@H]1c1ccccc1,122% (inactive)
19,CC1CCN(c2ccc3c(c2)S(=O)(=O)c2ccccc2C3=O)CC1,-45.6% (inactive)
20,COc1cccc(NC(=O)CN(C)C(=O)c2cccnc2Nc2cccc(C(F)(F)F)c2)c1,-21.3% (inactive)
21,CCCn1c(=O)c(C(=O)NCc2ccc(OC)c(OC)c2)c(O)c2ccccc21,-19.9% (inactive)
